Read-outs that look alike come from different tables or passages of the source.
Legend:
[1] = test system: Brown Rust (Puccinia recondita) on wheat; test: Greenhouse crop test: control of Brown Rust on wheat in combination with commercial fungicides; type: in vivo; settings: wheat JB Diego, inoculated 24 hours after treatment, evaluated at fourteen days; for Amistar (% control of the disease, compound + fungicide): with Amistar 0.04 L/ha; for Balaya (% control of the disease, compound + fungicide): with Balaya 0.25 L/ha; for Imtrex (% control of the disease, compound + fungicide): with Imtrex 0.45 L/ha; for Proline (% control of the disease, compound + fungicide): with Proline 0.15 L/ha
Method: In this method, exemplary compounds were evaluated for their ability to control Brown Rust (Puccinia recondita) on wheat in a controlled greenhouse environment in combination with one of four fungicides, Amistar, Imtrex, Proline or Balaya. In these studies, wheat plants (JB Diego) were used. Seeds were sown in 9 cm diameter pots to a depth of 1 to 2 cm using Petersfield potting compost (75% medium grade peat, 12% screened sterilized loam, 3% medium grade vermiculite, 10% grit (5 mm screened, lime free), 1.5 kg PG mix per m3, lime to pH5.5-6.0 and wetting agent (Vitax Ultrawet 200 ml per m3) and germinated/grown at 23 C under a 16 h day/8 h night light regime. Plants were treated two to three weeks after sowing when they were at the BBCH 11 growth stage ([…]). Wheat plants were inoculated with Puccinia triticina (Brown rust) 24 hours after treatment. A track sprayer was used to treat the plants with the mixture of commercial fungicide and test compound using a water volume of 200 L/ha. Four replicates were used for each combination of fungicide, pathogen and test compound. Each plant was evaluated at fourteen days (once the disease symptoms were fully expressed) for % control of the disease. Appropriate controls were used for all experiments, including an ‘inoculation check’ wherein plants were inoculated with their specific pathogen to assess disease levels. Also, each commercial fungicide was tested on its own as a part of each treatment, this being benchmark against which the experimental compounds were evaluated. […] That is, the present compounds, although not fungicidal by themselves, enhance the activity of fungicides, thus the enhancer compounds work synergistically in combination with fungicides to control disease. • Amistar (0.04 L/ha) • Imtrex (0.45 L/ha) • Proline (0.15 L/ha) • Balaya (0.25 L/ha)

[2] = test system: apyrase; test: Apyrase inhibition assay (screen for apyrase inhibitors, phosphate release read at 630 nm); type: biochemical; settings: inhibitor conc at 1 mM (10 μl added), 3 mM ATP, pH 6.5, room temperature 1 hr
[3] = test system: Amaranthus retroflexus (pigweed); test: Enhancement of herbicide activity: pre-emergence Amaranthus kill with metribuzin; type: in vivo; settings: for pest or weed control at 100 g/ha: Amaranthus retroflexus; for enhancement of metribuzin herbicidal activity: compound at 100 g/ha with metribuzin, at seven and fourteen days
Method: Specifically, Amaranthus retroflexus (pigweed) was treated pre-emergence with metribuzin alone or in combination with an enhancer compound disclosed herein. Fifteen seeds of Amaranthus retroflexus were sown in soil in each pot and then sprayed with a mixture of metribuzin at the appropriate rate shown in Table 5 and the compound of this invention at 100 g/ha using a track sprayer at a water volume of 200 L/hectare. Small amounts of acetone were used to aid solubility. The pots were watered immediately after sowing and treatment and then allowed to stand in a glasshouse. Assessment of kill was made seven and fourteen days after treatment. The test included four replicates for each treatment and the control.

[4] = 168 h, read-out: Pre-Emergence Amaranthus Kill Percentage, Assessed 7 DAT, Metribuzin rate 50 g/ha
[5] = 168 h, read-out: Pre-Emergence Amaranthus Kill Percentage, Assessed 7 DAT, Metribuzin rate 100 g/ha
[6] = 168 h, read-out: Pre-Emergence Amaranthus Kill Percentage, Assessed 7 DAT, Metribuzin rate 200 g/ha
[7] = 336 h, read-out: Pre-Emergence Amaranthus Kill Percentage, Assessed 14 DAT, Metribuzin rate 50 g/ha
[8] = 336 h, read-out: Pre-Emergence Amaranthus Kill Percentage, Assessed 14 DAT, Metribuzin rate 100 g/ha
[9] = 336 h, read-out: Pre-Emergence Amaranthus Kill Percentage, Assessed 14 DAT, Metribuzin rate 200 g/ha

SMILES: Cc1ccnc(NS(=O)(=O)c2ccc(CC#N)cc2)n1 [Compound A-21, 4-(cyanomethyl)-N-(4-methylpyrimidin-2-yl)benzenesulfonamide]
- Amistar (% control of the disease, compound + fungicide) [1]: 48.5%
- Balaya (% control of the disease, compound + fungicide) [1]: 39.0%
- Imtrex (% control of the disease, compound + fungicide) [1]: 47.7%
- Proline (% control of the disease, compound + fungicide) [1]: 1.2%
- Inhibition [2]: A (A is inhibition above 30%)
- pest or weed control at 100 g/ha [3, 4]: 0%
- pest or weed control at 100 g/ha [3, 5]: 62.3%
- pest or weed control at 100 g/ha [3, 6]: 100%
- pest or weed control at 100 g/ha [3, 7]: 4.4%
- pest or weed control at 100 g/ha [3, 8]: 63%
- pest or weed control at 100 g/ha [3, 9]: 100%
- enhancement of metribuzin herbicidal activity [3]: significant enhancement

SMILES: O=C1Cc2cc(NS(=O)(=O)c3ccc(-c4ccccc4)cc3)ccc2N1 [Compound A-8, N-(2-oxoindolin-5-yl)-[1,1′-biphenyl]-4-sulfonamide]
- Amistar (% control of the disease, compound + fungicide) [1]: 72.9%
- Balaya (% control of the disease, compound + fungicide) [1]: 77.2%
- Imtrex (% control of the disease, compound + fungicide) [1]: 47.8%
- Proline (% control of the disease, compound + fungicide) [1]: 13.3%
- Inhibition [2]: A (A is inhibition above 30%)
- pest or weed control at 100 g/ha [3, 4]: 12.8%
- pest or weed control at 100 g/ha [3, 5]: 28.6%
- pest or weed control at 100 g/ha [3, 6]: 100%
- pest or weed control at 100 g/ha [3, 7]: 18.8%
- pest or weed control at 100 g/ha [3, 8]: 35.7%
- pest or weed control at 100 g/ha [3, 9]: 100%
- enhancement of metribuzin herbicidal activity [3]: significant enhancement

SMILES: O=S(=O)(Nc1cccc(Cl)c1N1CCOCC1)c1ccc(-c2ccccc2)cc1 [Compound A-116, N-(3-chloro-2-morpholinophenyl)-[1,1′-biphenyl]-4-sulfonamide]
- Amistar (% control of the disease, compound + fungicide) [1]: 68.0%
- Balaya (% control of the disease, compound + fungicide) [1]: 24.2%
- Imtrex (% control of the disease, compound + fungicide) [1]: 48.4%
- Proline (% control of the disease, compound + fungicide) [1]: 14.6%
- Inhibition [2]: A (A is inhibition above 30%)

SMILES: Cc1cccc(NS(=O)(=O)c2ccc(C(C)C)cc2)c1 [Compound A-59, 4-isopropyl-N-(m-tolyl)benzenesulfonamide]
- Amistar (% control of the disease, compound + fungicide) [1]: 95.0%
- Balaya (% control of the disease, compound + fungicide) [1]: 50.0%
- Imtrex (% control of the disease, compound + fungicide) [1]: 30.9%
- Proline (% control of the disease, compound + fungicide) [1]: 15.6%
- Inhibition [2]: A (A is inhibition above 30%)
- pest or weed control at 100 g/ha [3, 4]: 14.3%
- pest or weed control at 100 g/ha [3, 5]: 64.6%
- pest or weed control at 100 g/ha [3, 6]: 95%
- pest or weed control at 100 g/ha [3, 7]: 25.9%
- pest or weed control at 100 g/ha [3, 8]: 67.3%
- pest or weed control at 100 g/ha [3, 9]: 100%
- enhancement of metribuzin herbicidal activity [3]: significant enhancement

SMILES: O=S(=O)(Nc1cccc(C(F)(F)F)c1)c1cnc(-c2ccccc2)nc1 [Compound A-37, 2-phenyl-N-(3-(trifluoromethyl)phenyl)pyrim-idine-5-sulfonamide]
- Amistar (% control of the disease, compound + fungicide) [1]: 58.7%
- Balaya (% control of the disease, compound + fungicide) [1]: 78.0%
- Imtrex (% control of the disease, compound + fungicide) [1]: 12.7%
- Proline (% control of the disease, compound + fungicide) [1]: −1.2%
- Inhibition [2]: B (B is inhibition from 20% to 30%)

SMILES: O=S(=O)(Nc1ccc2c(c1)CCCN2)c1ccc(-c2ccccc2)cc1 [Compound A-99, N-(1,2,3,4-tetrahydroquinolin-6-yl)-[1,1′-biphenyl]-4-sulfonamide]
- Amistar (% control of the disease, compound + fungicide) [1]: 71.4%
- Balaya (% control of the disease, compound + fungicide) [1]: 84.1%
- Imtrex (% control of the disease, compound + fungicide) [1]: 16.1%
- Proline (% control of the disease, compound + fungicide) [1]: 5.7%
- Inhibition [2]: A (A is inhibition above 30%)

SMILES: O=S(=O)(Nc1ccc(-c2nncs2)cc1)c1ccc(-c2ccccc2)cc1 [Compound A-29, N-(4-(1,3,4-thiadiazol-2-yl)phenyl)-[1,1′-biphenyl]-4-sulfonamide]
- Amistar (% control of the disease, compound + fungicide) [1]: 67.0%
- Balaya (% control of the disease, compound + fungicide) [1]: 59.5%
- Imtrex (% control of the disease, compound + fungicide) [1]: 60.1%
- Proline (% control of the disease, compound + fungicide) [1]: 18.7%
- Inhibition [2]: A (A is inhibition above 30%)
- pest or weed control at 100 g/ha [3, 4]: 13.2%
- pest or weed control at 100 g/ha [3, 5]: 66.7%
- pest or weed control at 100 g/ha [3, 6]: 87.7%
- pest or weed control at 100 g/ha [3, 7]: 17.1%
- pest or weed control at 100 g/ha [3, 8]: 71.4%
- pest or weed control at 100 g/ha [3, 9]: 90%
- enhancement of metribuzin herbicidal activity [3]: significant enhancement

SMILES: COc1cccc(NS(=O)(=O)c2ccc(-c3ccc(C)cc3)cc2)c1 [Compound A-34, N-(3-methoxyphenyl)-4′-methyl-[1,1′-biphenyl]-4-sulfonamide]
- Amistar (% control of the disease, compound + fungicide) [1]: 51.9%
- Balaya (% control of the disease, compound + fungicide) [1]: 48.3%
- Imtrex (% control of the disease, compound + fungicide) [1]: 34.5%
- Proline (% control of the disease, compound + fungicide) [1]: 3.8%
- Inhibition [2]: A (A is inhibition above 30%)
- pest or weed control at 100 g/ha [3, 4]: 28.3%
- pest or weed control at 100 g/ha [3, 5]: 70.5%
- pest or weed control at 100 g/ha [3, 6]: 100%
- pest or weed control at 100 g/ha [3, 7]: 37.3%
- pest or weed control at 100 g/ha [3, 8]: 77.8%
- pest or weed control at 100 g/ha [3, 9]: 100%
- enhancement of metribuzin herbicidal activity [3]: significant enhancement

SMILES: COc1cccc(NS(=O)(=O)c2ccc(-c3ccccc3)cc2)c1 [Compound A-3, N-(3-methoxyphenyl)-[1,1′-biphenyl]-4-sulfonamide]
- Amistar (% control of the disease, compound + fungicide) [1]: 81.4%
- Balaya (% control of the disease, compound + fungicide) [1]: 38.9%
- Imtrex (% control of the disease, compound + fungicide) [1]: 47.6%
- Proline (% control of the disease, compound + fungicide) [1]: 3.8%
- Inhibition [2]: A (A is inhibition above 30%)
- pest or weed control at 100 g/ha [3, 4]: 15.6%
- pest or weed control at 100 g/ha [3, 5]: 68.9%
- pest or weed control at 100 g/ha [3, 6]: 34%
- pest or weed control at 100 g/ha [3, 7]: 21.7%
- pest or weed control at 100 g/ha [3, 8]: 72%
- pest or weed control at 100 g/ha [3, 9]: 38.5%
- enhancement of metribuzin herbicidal activity [3]: significant enhancement

SMILES: Cc1ccc(C)c(NS(=O)(=O)c2ccc(-c3ccccc3)cc2)c1 [Compound A-5, N-(2,5-dimethylphenyl)-[1,1′-biphenyl]-4-sulfonamide]
- Amistar (% control of the disease, compound + fungicide) [1]: 89.2%
- Balaya (% control of the disease, compound + fungicide) [1]: 13.0%
- Imtrex (% control of the disease, compound + fungicide) [1]: 24.3%
- Proline (% control of the disease, compound + fungicide) [1]: 15.1%
- Inhibition [2]: A (A is inhibition above 30%)

SMILES: Cc1cccc(NS(=O)(=O)c2ccc(CCC(=O)O)cc2)c1 [Compound A-103, 3-(4-(N-(m-tolyl)sulfamoyl)phenyl) propanoic acid]
- Amistar (% control of the disease, compound + fungicide) [1]: 37.0%
- Balaya (% control of the disease, compound + fungicide) [1]: 67.2%
- Imtrex (% control of the disease, compound + fungicide) [1]: 13.2%
- Proline (% control of the disease, compound + fungicide) [1]: 4.4%
- Inhibition [2]: B (B is inhibition from 20% to 30%)
- pest or weed control at 100 g/ha [3, 4]: 5.1%
- pest or weed control at 100 g/ha [3, 5]: 54.7%
- pest or weed control at 100 g/ha [3, 6]: 91.5%
- pest or weed control at 100 g/ha [3, 7]: 30.6%
- pest or weed control at 100 g/ha [3, 8]: 43.1%
- pest or weed control at 100 g/ha [3, 9]: 98.4%
- enhancement of metribuzin herbicidal activity [3]: significant enhancement

SMILES: Cc1ccc(C(=O)N(C)C)cc1NS(=O)(=O)c1ccc(-c2ccccc2)cc1 [Compound A-108, 3-([1,1′-biphenyl]-4-sulfonamido)-N,N,4-trimethylbenzamide]
- Amistar (% control of the disease, compound + fungicide) [1]: 92.1%
- Balaya (% control of the disease, compound + fungicide) [1]: 31.7%
- Imtrex (% control of the disease, compound + fungicide) [1]: 40.5%
- Proline (% control of the disease, compound + fungicide) [1]: −1.2%
- Inhibition [2]: A (A is inhibition above 30%)
- pest or weed control at 100 g/ha [3, 4]: 6.3%
- pest or weed control at 100 g/ha [3, 5]: 76.5%
- pest or weed control at 100 g/ha [3, 6]: 100%
- pest or weed control at 100 g/ha [3, 7]: 13.5%
- pest or weed control at 100 g/ha [3, 8]: 78.8%
- pest or weed control at 100 g/ha [3, 9]: 100%
- enhancement of metribuzin herbicidal activity [3]: significant enhancement
